# Results: patent US10688093B2, “Methods, compositions, and uses of novel Fyn kinase inhibitors” (priority 2015, dated 2020)
# Molecular target: full-length recombinant human FYN A (Homo sapiens (Human), UniProt P06241)
# Assay: ADP-Glo Kinase Assay of FYN kinase inhibition
# Format: biochemical
# Details: primary screen, initial compounds
# How it was run: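 ADP-Glo read-out of peptide phosphorylation after 90 min RT with 12.5 pmol ATP and 100 pg 12-mer substrate. Enzyme was N-GST full-length human FYN A from insect cells, 3 pg, pre-incubated 30 min with compound, 10 points from 10 μM top, 3-fold steps; IC50 from curve.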
# Chain of full-length recombinant human FYN A (P06241 whole entry): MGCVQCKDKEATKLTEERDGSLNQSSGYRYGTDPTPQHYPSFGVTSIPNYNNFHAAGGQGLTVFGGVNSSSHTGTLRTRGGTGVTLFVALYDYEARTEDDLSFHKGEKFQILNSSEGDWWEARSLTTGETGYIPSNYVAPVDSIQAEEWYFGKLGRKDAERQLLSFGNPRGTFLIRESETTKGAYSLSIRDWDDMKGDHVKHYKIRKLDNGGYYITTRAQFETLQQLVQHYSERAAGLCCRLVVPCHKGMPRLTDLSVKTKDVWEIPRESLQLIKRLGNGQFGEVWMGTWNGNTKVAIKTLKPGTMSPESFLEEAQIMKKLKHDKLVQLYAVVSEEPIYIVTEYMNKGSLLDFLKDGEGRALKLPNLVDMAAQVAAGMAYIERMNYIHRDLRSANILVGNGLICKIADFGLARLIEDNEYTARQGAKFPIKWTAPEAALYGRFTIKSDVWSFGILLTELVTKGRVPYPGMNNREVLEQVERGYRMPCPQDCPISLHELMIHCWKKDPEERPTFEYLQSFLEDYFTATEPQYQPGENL
row,SMILES,IC50
1,"CC(=O)Nc1cccc(-c2cnc3ccc(-c4ccccc4)nn23)c1 [Compound 314, N-[3-(6-phenylimidazo [1,2-b]pyridazin-3-yl)phenyl] acetamide]",773 nM
2,"CC(=O)Nc1cccc(-c2cnc3ccc(-c4cccc(O)c4)nn23)c1 [Compound 315, N-[3-[6-(3-hydroxyphenyl)imidazo[1,2-b]pyridazin-3-yl]phenyl] acetamide]",1070 nM
3,"COc1ccc(-c2cnc3ccc(-c4cccc(F)c4)nn23)cc1OC [Compound 316, 3-(3,4-dimethoxy-phenyl)-6-(3-fluorophenyl) imidazo[1,2-b]pyridazine]",1040 nM
4,"CC(=O)Nc1cccc(-c2cnc3ccc(-c4ccc(CO)cc4)nn23)c1 [Compound 317, N-[3-[6-[4-(hydroxymethyl)phenyl]imidazo [1,2-b]pyridazin-3-yl]phenyl] acetamide]",494 nM
5,"OCc1cccc(-c2cnc3ccc(-c4ccccc4)nn23)c1 [Compound 318, [3-(6-phenylimidazo [1,2-b]pyridazin-3-yl)phenyl] methanol]",1750 nM
6,"Clc1cccc(-c2ccc3ncc(-c4ccncc4)n3n2)c1 [Compound 319, 6-(3-chlorophenyl)-3-(4-pyridyl)imidazo [1,2-b]pyridazine]",258 nM
7,"COc1cc(-c2ccc3ncc(-c4ccc(OC)c(OC)c4)n3n2)ccc1O [Compound 320, 4-[3-(3,4-dimethoxy-phenyl)imidazo [1,2-b]pyridazin-6-yl]-2-methoxy-phenol]",222 nM
8,"COc1ccccc1-c1ccc2ncc(-c3cccc(NC(C)=O)c3)n2n1 [Compound 321, N-[3-[6-(2-methoxyphenyl)imidazo[1,2-b]pyridazin-3-yl]phenyl] acetamide]",2850 nM
9,"CC(=O)Nc1cccc(-c2cnc3ccc(-c4cccc(C(F)(F)F)c4)nn23)c1 [Compound 322, N-[3-[6-[3-(trifluoromethyl)phenyl]imidazo [1,2-b]pyridazin-3-yl]phenyl] acetamide]",1600 nM
10,"COc1ccccc1-c1ccc2ncc(-c3cccc(CO)c3)n2n1 [Compound 323, [3-[6-(2-methoxyphenyl)imidazo[1,2-b]pyridazin-3-yl]phenyl] methanol]",1070 nM
11,"COc1cc(-c2ccc3ncc(-c4cccc(CO)c4)n3n2)ccc1O [Compound 324, 4-[3-[3-(hydroxymethyl)phenyl]imidazo [1,2-b]pyridazin-6-yl]-2-methoxy-phenol]",153 nM
12,"c1ccc(-c2cnc3ccc(-c4ccncc4)nn23)cc1 [Compound 325, 3-phenyl-6-(4-pyridyl)imidazo [1,2-b]pyridazine]",6930 nM
13,"Oc1cccc(-c2ccc3ncc(-c4ccncc4)n3n2)c1 [Compound 326, 3-[3-(4-pyridyl)imidazo [1,2-b]pyridazin-6-yl]phenol]",223 nM
14,"COc1ccc(-c2cnc3ccc(-c4ccccc4)nn23)cc1OC [Compound 327, 3-(3,4-dimethoxy-phenyl)-6-phenyl-imidazo[1,2-b]pyridazine]",420 nM
15,"COc1ccc(-c2cnc3ccc(-c4ccc(F)cc4)nn23)cc1OC [Compound 328, 3-(3,4-dimethoxy-phenyl)-6-(4-fluorophenyl) imidazo[1,2-b]pyridazine]",1330 nM
16,"COc1cc(-c2ccc3ncc(-c4cccc(NC(C)=O)c4)n3n2)cc(OC)c1OC [Compound 329, N-[3-[6-(3,4,5-trimethoxyphenyl)imidazo[1,2-b]pyridazin-3-yl]phenyl] acetamide]",3130 nM
17,"COc1cc(-c2ccc3ncc(-c4cccc(NC(C)=O)c4)n3n2)ccc1O [Compound 330, N-[3-[6-(4-hydroxy-3-methoxy-phenyl)imidazo [1,2-b]pyridazin-3-yl]phenyl] acetamide]",93 nM
18,"c1ccc(-c2cnc3ccc(-c4cccnc4)nn23)cc1 [Compound 331, 3-phenyl-6-(3-pyridyl)imidazo [1,2-b]pyridazine]",3840 nM

row,SMILES,IC50
1,OCc1ccc(-c2ccc3ncc(-c4ccncc4)n3n2)cc1 [Compound 332],255 nM
2,"COc1ccc(-c2cnc3ccc(-c4ccccc4OC)nn23)cc1OC [Compound 333, 3-(3,4-dimethoxy-phenyl)-6-(2-methoxyphenyl) imidazo[1,2-b]pyridazine]",3120 nM
3,"COc1ccc(-c2cnc3ccc(-c4ccoc4)nn23)cc1OC [Compound 334, 3-(3,4-dimethoxy-phenyl)-6-(3-furyl)imidazo [1,2-b]pyridazine]",983 nM
4,"CC(=O)Nc1cccc(-c2cnc3ccc(-c4ccoc4)nn23)c1 [Compound 335, N-[3-[6-(3-furyl)imidazo [1,2-b]pyridazin-3-yl]phenyl] acetamide]",1260 nM
5,"OCc1cccc(-c2cnc3ccc(-c4ccoc4)nn23)c1 [Compound 336, [3-[6-(3-furyl)imidazo [1,2-b]pyridazin-3-yl]phenyl] methanol]",3990 nM
6,"CN(C)c1ccc(-c2ccc3ncc(-c4ccncc4)n3n2)cc1 [Compound 337, N,N-dimethyl-4-[3-(4-pyridyl)imidazo[1,2-b]pyridazin-6-yl]aniline]",398 nM
7,"CS(=O)(=O)c1ccc(-c2ccc3ncc(-c4cccc(CO)c4)n3n2)cc1 [Compound 338, [3-[6-(4-methylsulfonyl-phenyl)imidazo [1,2-b]pyridazin-3-yl]phenyl] methanol]",3040 nM
8,"CC(=O)Nc1cccc(-c2ccc3ncc(-c4ccccc4)n3n2)c1 [Compound 339, N-[3-(3-phenylimidazo [1,2-b]pyridazin-6-yl)phenyl] acetamide]",3660 nM
9,"c1ccc(-c2ccc3ncc(-c4ccncc4)n3n2)cc1 [Compound 340, 6-phenyl-3-(4-pyridyl)imidazo [1,2-b]pyridazine]",229 nM
10,"Fc1cccc(-c2ccc3ncc(-c4ccncc4)n3n2)c1 [Compound 341, 6-(3-fluorophenyl)-3-(4-pyridyl) imidazo[1,2-b]pyridazine]",356 nM
11,"COc1cccc(-c2ccc3ncc(-c4ccc(OC)c(OC)c4)n3n2)c1 [Compound 342, 3-(3,4-dimethoxy-phenyl)-6-(3-methoxyphenyl) imidazo[1,2-b]pyridazine]",952 nM
12,"COc1cncc(-c2ccc3ncc(-c4cccc(NC(C)=O)c4)n3n2)c1 [Compound 343, N-[3-[6-(5-methoxy-3-pyridyl)imidazo [1,2-b]pyridazin-3-yl]phenyl] acetamide]",614 nM
13,COc1cncc(-c2ccc3ncc(-c4cccc(CO)c4)n3n2)c1 [Compound 344],2140 nM
14,"c1cc(-c2cnc3ccc(-c4ccc5c(c4)OCO5)nn23)ccn1 [Compound 345, 6-(1,3-benzodioxol-5-yl)-3-(4-pyridyl)imidazo [1,2-b]pyridazine]",217 nM
15,"c1cc(-c2cnc3ccc(-c4ccoc4)nn23)ccn1 [Compound 346, 6-(3-furyl)-3-(4-pyridyl)imidazo [1,2-b]pyridazine]",1020 nM
16,"CC(=O)Nc1cccc(-c2cnc3ccc(-c4cccc(Cl)c4)nn23)c1 [Compound 347, N-[3-[6-(3-chlorophenyl)imidazo[1,2-b]pyridazin-3-yl]phenyl] acetamide]",370 nM
17,"COc1cccc(-c2ccc3ncc(-c4cccc(NC(C)=O)c4)n3n2)c1 [Compound 348, N-[3-[6-(3-methoxyphenyl)imidazo[1,2-b]pyridazin-3-yl]phenyl] acetamide]",409 nM
18,"OCc1cccc(-c2cnc3ccc(-c4cccc(O)c4)nn23)c1 [Compound 349, 3-[3-[3-(hydroxymethyl)phenyl]imidazo [1,2-b]pyridazin-6-yl]phenol]",954 nM
